Source: patent publication US6235284A, “Synthetic polypeptides belonging to the hepatitis C virus (HCV) and which can be used especially for detecting the latter” (Bio Merieux, priority 1992, dated 2001)

System: anti-HCV antibodies (HCV-positive sera)
Test: ELISA detection of anti-HCV antibodies in HCV-positive sera with adsorbed peptides
Assay type: binding, human
Method: The reactivity of these three peptides towards the sera of individuals infected with the hepatitis C virus, termed (HCV) positive, was evaluated in an ELISA test according to the procedure described below.
Detection of anti-HCV Antibodies by ELISA
The wells of a microtiter plate of "NUNC MAXISORB™" trademark are saturated with 100 μl of a solution containing the peptide or a mixture of peptides (10 μg/ml) for 2 hours at 37° C. The plate is then emptied, then washed with a wash buffer containing 0.05% TWEEN™ 20(polysorbate 20). The wells are saturated with 100 μl of wash buffer supplemented with 10% goat serum (v/v), then incubated for 30 minutes at 37° C., then washed again as above. The sera to be analyzed are diluted to the appropriate dilution with saturation buffer. The incubation of the sera is 1 hour at 37° C. The wells are again washed. The solution of conjugate (goat IgG to human IgG labelled with peroxidase) at a dilution of 1/1000 in the saturation buffer is then added and the incubation lasts for 90 minutes at 37° C. After washing, the solution of orthophenylenediamine substrate is added. After 10 minutes, the reaction is stopped with 50 μl of H2 SO4 and the optical density is read at 492 nm. It should be noted that all the tests were carried out in duplicate.
For that, the different peptides are adsorbed on the microplates at a concentration of 10 μg/ml and the sera are used at 1/100 dilution.
The values obtained, which are collated in Table 1 below, correspond to the optical density (OD) multiplied by 10^3, at 492 nm.
For each serum the experiment was carried out in duplicate. The **** are values outside the upper scale.
The different peptides are absorbed onto microplates at a concentration of 10 μg/ml and the sera are used at the dilution stated.
The values obtained, which are collated in Table 2 below, correspond to the optical density at 492 nm. All the experiments were carried out in duplicate.
Each serum was, in a first instance, tested at the dilution 1/100.
The values given correspond to the optical density read at 492 nm multiplied by the factor 10^3.

## K22Y: peptide corresponding to the amino acid sequence 12 to 35 of the CORE protein (KRNTNRRPQDVKFPGGGQIVGGVY)
Table 4, serum A 8, 1/1000
  optical density at 492 nm: 431 OD × 10^3
Table 4, serum A 8, 1/10,000
  optical density at 492 nm: 56 OD × 10^3
Table 4, serum A 9, 1/100
  optical density at 492 nm: 2152 OD × 10^3
Table 4, serum A 9, 1/1000
  optical density at 492 nm: 282 OD × 10^3
Table 4, serum A 9, 1/10,000
  optical density at 492 nm: 43 OD × 10^3
Table 4, serum A 10, 1/100
  optical density at 492 nm: 2114 OD × 10^3
Table 4, serum A 10, 1/1000
  optical density at 492 nm: 207 OD × 10^3
Table 4, serum A 10, 1/10,000
  optical density at 492 nm: 26 OD × 10^3
Table 4, serum A 11, 1/100
  optical density at 492 nm: 1878 OD × 10^3
Table 4, serum A 11, 1/1000
  optical density at 492 nm: 212 OD × 10^3
Table 4, serum A 11, 1/10,000
  optical density at 492 nm: 31 OD × 10^3
Table 4, serum A 12, 1/1000
  optical density at 492 nm: 646 OD × 10^3
Table 4, serum A 12, 1/10,000
  optical density at 492 nm: 62 OD × 10^3
Table 4, serum B 3, 1/100
  optical density at 492 nm: 2033 OD × 10^3
Table 4, serum P 1, 1/100
  optical density at 492 nm: 435 OD × 10^3
Table 4, serum P 2, 1/100
  optical density at 492 nm: 666 OD × 10^3
Table 4, serum P 3, 1/100
  optical density at 492 nm: 1031 OD × 10^3
Table 4, serum P 4, 1/1000
  optical density at 492 nm: 1959 OD × 10^3
Table 4, serum P 4, 1/10,000
  optical density at 492 nm: 300 OD × 10^3
Table 4, serum P 5, 1/10,000
  optical density at 492 nm: 394 OD × 10^3
Table 4, serum P 7, 1/10,000
  optical density at 492 nm: 1487 OD × 10^3
Table 4, serum P 8, 1/1000
  optical density at 492 nm: 2257 OD × 10^3
Table 4, serum P 8, 1/10,000
  optical density at 492 nm: 335 OD × 10^3
Table 4, serum P 10, 1/100
  optical density at 492 nm: 66 OD × 10^3
Table 4, serum P 14, 1/10,000
  optical density at 492 nm: 398 OD × 10^3
Table 4, serum P 16, 1/1000
  optical density at 492 nm: 610 OD × 10^3
Table 4, serum P 16, 1/10,000
  optical density at 492 nm: 75 OD × 10^3
Table 4, serum P 17, 1/100
  optical density at 492 nm: 1930 OD × 10^3
Table 4, serum P 23, 1/100
  optical density at 492 nm: 125 OD × 10^3
Table 4, serum P 24, 1/100
  optical density at 492 nm: 735 OD × 10^3
Table 4, serum P 29, 1/100
  optical density at 492 nm: 310 OD × 10^3
Table 4, serum P 30, 1/100
  optical density at 492 nm: 1805 OD × 10^3

## K32G: peptide corresponding to the amino acid sequence 12 to 45 of the CORE protein (KRNTNRRPQDVKFPGGGQIVGGVYLLPRRGPTLG)
Table 5, serum A8, 1/10,000
  optical density at 492 nm: 666 OD × 10^3
Table 5, serum A 9, 1/1000
  optical density at 492 nm: 1675 OD × 10^3
Table 5, serum A 9, 1/10,000
  optical density at 492 nm: 229 OD × 10^3
Table 5, serum A11, 1/1000
  optical density at 492 nm: 2108 OD × 10^3
Table 5, serum A11, 1/10,000
  optical density at 492 nm: 343 OD × 10^3
Table 5, serum A12, 1/10,000
  optical density at 492 nm: 598 OD × 10^3
Table 5, serum A13, 1/10,000
  optical density at 492 nm: 1247 OD × 10^3
Table 5, serum A14, 1/1000
  optical density at 492 nm: 998 OD × 10^3
Table 5, serum A14, 1/10,000
  optical density at 492 nm: 103 OD × 10^3
Table 5, serum A15, 1/10,000
  optical density at 492 nm: 715 OD × 10^3
Table 5, serum A19, 1/10,000
  optical density at 492 nm: 594 OD × 10^3
Table 5, serum A21, 1/1000
  optical density at 492 nm: 993 OD × 10^3
Table 5, serum A21, 1/10,000
  optical density at 492 nm: 123 OD × 10^3
Table 5, serum A22, 1/1000
  optical density at 492 nm: 876 OD × 10^3
Table 5, serum A22, 1/10,000
  optical density at 492 nm: 129 OD × 10^3
Table 5, serum A23, 1/10,000
  optical density at 492 nm: 774 OD × 10^3
In words
  reactivity towards HCV-positive sera: little or no difference is observed in reactivity
